Columns and labels:
[1] = Solid form characterisation of 5MeODMT benzoate lots (XRPD, DSC, TGA, 1H NMR)
[2] = test system: Slugs (Arion lusitanicus); assay type: in vivo; conditions: Example 8; for Total MP (% body weight): Concentration (w/v) 10%
Text: The Slug Mucosal Irritation (SMI) assay was initially developed at the Laboratory of Pharmaceutical Technology (UGent) to predict the mucosal irritation potency of pharmaceutical formulations and ingredients. The test utilizes the terrestrial slug Arion lusitanicus. The body wall of the slugs is a mucosal surface composed of different layers.
The outer single-layered columnar epithelium that contains cells with cilia, cells with micro-villi and mucus secreting cells covers the subepithelial connective tissue. Slugs that are placed on an irritating substance will produce mucus. Additionally tissue damage can be induced which results in the release of proteins and enzymes from the mucosal surface. […] A classification prediction model that distinguishes between irritation (mucus production) and tissue damage (release of proteins and enzymes) has been developed. […] A 5% shampoo dilution or artificial tears were instilled in the eye and the discomfort was scored by the participants on a 5 point scale during several time points up to 30 min after instillation. The same shampoos were tested in the SMI assay using the Stinging, Itching and Burning (SIB) protocol.
The purpose of this assay was to assess the stinging, itching or burning potential of the test item(s) defined below. Using the objective values obtained for the mucus production the stinging, itching or burning potential of the test item(s) can be estimated by means of the prediction model that is composed of four categories (no, mild, moderate and severe).
Test System: Slugs (Arion lusitanicus); 3 slugs per treatment group. The parental slugs of Arion lusitanicus collected in local gardens along Gent and Aalter (Belgium) are bred in the laboratory in an acclimatized room (18-20° C.). The slugs are housed in plastic containers and fed with lettuce, cucumber, carrots and commercial dog food.
Test Design: A single study was performed.
Slugs weighing between 3 and 6 g were isolated from the cultures two days before the start of an experiment. The body wall was inspected carefully for evidence of macroscopic injuries. […] The slugs were placed in a plastic box lined with paper towel moistened with PBS and were kept at 18-20° C. Daily the body wall of the slugs was wetted with 300 μl PBS using a micropipette.
An overview of this can be seen in FIG. 4.
The mucus production was expressed as % of the body weight.
Based on the endpoint of the SMI assay the stinging, itching or burning potency of the test item(s) was estimated using a classification prediction model.
The evaluation of the test results was based upon the total amount of mucus production during 3 repeated contact periods with the test item.
For each slug, the mucus production was expressed in % of the body weight by dividing the weight of the mucus produced during each contact period by the body weight of the slug before the start of that contact period. The total mucus was calculated for each slug and then the mean per treatment group was calculated. The classification prediction model shown in Table 1 was used to classify the compounds.

ovine nasal epithelium = experiment: Permeation through ovine nasal epithelium; assay type: in vitro ADME; conditions: for Cumulative amount (μg/cm^2): […] dosing solution in water, mean, n=5; for Permeation compared with the hydrochloride salt: across ovine nasal epithelium
Text: The use of ovine nasal epithelium to study nasal drug absorption is a technique which is well known to the person skilled in the art.

[3] = Dynamic Vapour Sorption (DVS); assay type: physicochemical
Experimental: A modified DVS isotherm of lot 20/45/006-FP (the same crystalline version) was undertaken to examine material behaviour from 60% RH and above. […] This is to obtain in-depth profiling of the material towards humidity at these elevated levels.
Temperature and humidity are important factors in the processing and storage of pharmaceuticals. DVS provides a versatile and sensitive technique for evaluating the stability of pharmaceutical formulations.
The solution was clarified into a 500 ml round bottom flask, the round bottom flask was rotated in an acetone/dry ice bath to freeze the solution in a thin layer around the flask. The ice was sublimed in vacuo at ambient temperature affording a fluffy white solid. The solid was removed from the round bottom flask and transferred to the DVS instrument. During this transfer, the solid collapsed to a sticky gum.
The sample was examined by DVS from 40% RH and cycled between 0% RH and 90% RH twice.
XRPD was collected on a portion of the sample post-lyophoilisation and post-DVS examination.

[4] = Controlled cooling crystallisation: solubility in minimal solvent at 50 °C; assay type: physicochemical; conditions: 50° C.
Experimental: (detailed in the Table below). The solutions were clarified through a 0.45 μm Teflon syringe filter into pre-heated crystallisation tubes and cooled from 50° C. to −10° C. over 60 hours (1° C. Hr-1 cooling rate) and held at −10° C. for 50 hours (no agitation).
Solutions were clarified into crystallisation tubes at 50° C. and were cooled to −10° C. at a rate of 10° C.·hr-1, then equilibrated at −10° C. for 12 hours, then agitated at −10° C. at 400 rpm for 30 minutes which afforded a mobile suspension for all samples except Sample I which remained a solution. Further equilibration with agitation at −10° C. at 400 rpm for 3 hours afforded a thin suspension. All samples were isolated via isolute cartridge and air dried for 5 minutes before characterisation.

[5] = Stability of solid forms (Patterns A, B, C) open to atmosphere and in vacuo at 50 °C, by XRPD; assay type: physicochemical
Experimental: XRPD was performed regularly. DSC and 1H NMR spectroscopy were performed on samples where significant differences to the diffraction patterns were observed.

[6] = Generation of amorphous 5MeODMT benzoate and conversion on standing (XRPD, DSC); assay type: physicochemical; conditions: on standing / all conditions studied
Experimental: The flask was transferred to a vacuum and equilibrated to ambient temperature affording a fluffy white solid, 21-01-051 C.
The solid transformed into gum over ca. 1 hour. The sample was analysed immediately and after 20 hours held in a sealed container.

## COc1ccc2[nH]cc(CCN(C)C)c2c1.O=C(O)c1ccccc1
[1]; predominantly Pattern E lots
  Crystalline character: Pattern E

## COc1ccc2[nH]cc(CCN(C)C)c2c1.Cl [5MeODMT HCl, 5MeODMT hydrochloride]
[2]
  Irritation score on SMI testing: moderate
  Total MP (% body weight): 10.27 % body weight
Ovine nasal epithelium; Time 0.0 min
  Cumulative amount (μg/cm^2): 0.00 μg/cm^2
Ovine nasal epithelium; Time 10.0 min
  Cumulative amount (μg/cm^2): 0.33 μg/cm^2
Ovine nasal epithelium; Time 20.0 min
  Cumulative amount (μg/cm^2): 3.30 μg/cm^2
Ovine nasal epithelium; Time 30.0 min
  Cumulative amount (μg/cm^2): 8.26 μg/cm^2
Ovine nasal epithelium; Time 40.0 min
  Cumulative amount (μg/cm^2): 13.33 μg/cm^2
Ovine nasal epithelium; Time 50.0 min
  Cumulative amount (μg/cm^2): 18.77 μg/cm^2
Ovine nasal epithelium; Time 60.0 min
  Cumulative amount (μg/cm^2): 23.43 μg/cm^2
Ovine nasal epithelium; Time 75.0 min
  Cumulative amount (μg/cm^2): 29.52 μg/cm^2
[3]; lot 20/20/126-FP
  State of material upon completion of the DVS cycle: completed deliquesced
[3]; lot 20/20/126-FP, 0-70% RH
  Moisture uptake: less than 0.3 % w/w
[3]; lot 20/20/126-FP, 70-80% RH, first sorption cycle
  Moisture uptake: Approximately 23 % w/w
[3]; lot 20/20/126-FP, subsequent cycles
  Retained mass above the minimum mass recorded at 0% RH: 6-9 % w/w
[3]; lot 20/20/126-FP, up to and when held at 90% RH
  Further moisture uptake: 20 % w/w
[3]; lot 20/45/006-FP, 70-75% RH
  Moisture increase: ca. 0.46 % w/w
[3]; lot 20/45/006-FP, 75-80% RH
  Moisture uptake: ca. 7%
[3]; lot 20/45/006-FP, 80-85% RH
  Moisture uptake: ca. 40%
[3]; lot 20/45/006-FP, likely above 80% RH
  State of material post DVS analysis: Complete deliquescence

## COc1ccc2[nH]cc(CCN(C)C)c2c1.O=C(O)c1ccccc1 [5MeODMT benzoate 21-01-064 A]
[1]; predominantly Pattern C lots
  Crystalline character: Pattern C

## COc1ccc2[nH]cc(CCN(C)C)c2c1.O=C(O)c1ccccc1 [5MeODMT benzoate 21-01-064 B]
[1]; predominantly Pattern C lots
  Crystalline character: Pattern C

## COc1ccc2[nH]cc(CCN(C)C)c2c1.O=C(O)c1ccccc1 [5MeODMT benzoate 21-01-064 C]
[1]; predominantly Pattern E lots
  Crystalline character: Pattern E

## COc1ccc2[nH]cc(CCN(C)C)c2c1.O=C(O)c1ccccc1 [5MeODMT benzoate 21-01-064 D]
[1]; predominantly Pattern E lots
  Crystalline character: Pattern E

## COc1ccc2[nH]cc(CCN(C)C)c2c1.O=C(O)c1ccccc1 [5MeODMT benzoate 21-01-064 E (air dried 4 hours)]
[1]; predominantly Pattern D lots
  Crystalline character: Pattern D

## COc1ccc2[nH]cc(CCN(C)C)c2c1.O=C(O)c1ccccc1 [5MeODMT benzoate 21-01-064 E]
[1]; predominantly Pattern D lots
  Crystalline character: Pattern D

## COc1ccc2[nH]cc(CCN(C)C)c2c1.O=C(O)c1ccccc1 [5MeODMT benzoate 21-01-064 F]
[1]; predominantly Pattern D lots
  Crystalline character: Pattern D

## COc1ccc2[nH]cc(CCN(C)C)c2c1.O=C(O)c1ccccc1 [5MeODMT benzoate]
[2]
  Irritation score on SMI testing: mild
  Total MP (% body weight): 7.38 % body weight
Ovine nasal epithelium; Time 0.0 min
  Cumulative amount (μg/cm^2): 0.00 μg/cm^2
Ovine nasal epithelium; Time 10.0 min
  Cumulative amount (μg/cm^2): 0.20 μg/cm^2
Ovine nasal epithelium; Time 20.0 min
  Cumulative amount (μg/cm^2): 3.46 μg/cm^2
Ovine nasal epithelium; Time 30.0 min
  Cumulative amount (μg/cm^2): 9.30 μg/cm^2
Ovine nasal epithelium; Time 40.0 min
  Cumulative amount (μg/cm^2): 15.46 μg/cm^2
Ovine nasal epithelium; Time 50.0 min
  Cumulative amount (μg/cm^2): 21.51 μg/cm^2
Ovine nasal epithelium; Time 60.0 min
  Cumulative amount (μg/cm^2): 27.30 μg/cm^2
Ovine nasal epithelium; Time 75.0 min
  Cumulative amount (μg/cm^2): 33.34 μg/cm^2
Ovine nasal epithelium; Time 90.0 min
  Cumulative amount (μg/cm^2): 39.77 μg/cm^2
Ovine nasal epithelium; listed as 5MeODMT benzoate salt
  Permeation compared with the hydrochloride salt: higher permeation
Ovine nasal epithelium; listed as benzoate salt
  Permeation compared with the hydrochloride salt: higher permeation across the epithelium
Ovine nasal epithelium; listed as benzoate salt of 5MeODMT
  Permeation compared with the hydrochloride salt: higher permeation
[3]
  Form/version modification on exposure to variable humidity: no evidence of form/version modification
  Stability by DVS profile compared with the hydrochloride salt: significantly higher
[3]; from 0 to 90% humidity
  Maximum water uptake/loss: ~0.20%
[4]; 2-MeTHF
  Solubility (mg · mL^1): 31.25 mg · mL^1
[4]; 3-methyl-1-butanol
  Solubility (mg · mL^1): 31.25 mg · mL^1
[4]; Acetone
  Solubility (mg · mL^1): 62.5 mg · mL^1
[4]; Chlorobenzene
  Solubility (mg · mL^1): 12.5 mg · mL^1
[4]; IPA
  Solubility (mg · mL^1): 42 mg · mL^1
[4]; MEK
  Solubility (mg · mL^1): 62.5 mg · mL^1
[4]; MeCN
  Solubility (mg · mL^1): 50 mg · mL^1
[4]; MeOH
  Solubility (mg · mL^1): 250 mg · mL^1
[4]; MeOH:TBME (1:1)
  Solubility (mg · mL^1): 125 mg · mL^1
[4]; Nitromethane
  Solubility (mg · mL^1): 125 mg · mL^1
[4]; THF
  Solubility (mg · mL^1): 83 mg · mL^1
[4]; iPrOAc
  Solubility (mg · mL^1): 12.5 mg · mL^1

## COc1ccc2[nH]cc(CCN(C)C)c2c1.O=C(O)c1ccccc1 [21-01-071 C1, Pattern C]
[5]; In vacuo at 50° C., Day 2
  XRPD pattern throughout drying, Day 2: B + A
[5]; In vacuo at 50° C., Day 3
  XRPD pattern throughout drying, Day 3: A + B
[5]; Open to atmosphere at 20 ± 2° C., Day 1
  XRPD pattern throughout drying, Day 1: C + B
[5]; Open to atmosphere at 20 ± 2° C., Day 4
  XRPD pattern throughout drying, Day 4: C + B
[5]; Open to atmosphere at 20 ± 2° C., Day 6
  XRPD pattern throughout drying, Day 6: C + B
[5]; Open to atmosphere at 20 ± 2° C., Day 8
  XRPD pattern throughout drying, Day 8: C + B
[5]; Open to atmosphere at 20 ± 2° C., Day 12
  XRPD pattern throughout drying, Day 12: C + B

## COc1ccc2[nH]cc(CCN(C)C)c2c1.O=C(O)c1ccccc1 [Amorphous 5MeODMT benzoate]
[3]; amorphous input, after DVS at 90% RH
  Solid form after DVS examination (XRPD): concordant with Pattern A
[3]; amorphous lot 21-01-078, first desorption cycle
  Initial weight reduction: ca. 1.4%
[3]; amorphous lot 21-01-078, second sorption, between 50% RH and 90% RH
  Weight increase: 0.2%
[3]; amorphous, DVS examination
  Weight loss: ca. 2%
[6]
  Stability of the amorphous form: unstable and undergoes transformation to Pattern A form under all conditions studied
[6]; listed as amorphous 5MeODMT benzoate
  Stability of the amorphous form: will convert to Pattern A form material on standing

## COc1ccc2[nH]cc(CCN(C)C)c2c1.O=C(O)c1ccccc1 [Pattern B form]
[5]; open to atmosphere at ca. 20° C., up to 12 days
  Solid form stability: stable
